Ki and EC50 data for four compounds are collected here from ChEMBL document CHEMBL1132859, “Role of the hydrophobic moiety of tumor promoters. Synthesis and activity of 2-alkylated benzolactams” (Bioorg Med Chem Lett, 2000).

Test [1] deals with Protein kinase C delta type (Homo sapiens, UniProt Q05655). As to the kind of experiment: Binding affinity for human recombinant protein kinase C delta.
The next test concerns HL-60. Put plainly: Compound was evaluated for its effective dose against HL-60 cells. Format: functional. Conditions: Homo sapiens, read-out: ED50 (the source's name).

Sequence of Protein kinase C delta type (Q05655 whole entry): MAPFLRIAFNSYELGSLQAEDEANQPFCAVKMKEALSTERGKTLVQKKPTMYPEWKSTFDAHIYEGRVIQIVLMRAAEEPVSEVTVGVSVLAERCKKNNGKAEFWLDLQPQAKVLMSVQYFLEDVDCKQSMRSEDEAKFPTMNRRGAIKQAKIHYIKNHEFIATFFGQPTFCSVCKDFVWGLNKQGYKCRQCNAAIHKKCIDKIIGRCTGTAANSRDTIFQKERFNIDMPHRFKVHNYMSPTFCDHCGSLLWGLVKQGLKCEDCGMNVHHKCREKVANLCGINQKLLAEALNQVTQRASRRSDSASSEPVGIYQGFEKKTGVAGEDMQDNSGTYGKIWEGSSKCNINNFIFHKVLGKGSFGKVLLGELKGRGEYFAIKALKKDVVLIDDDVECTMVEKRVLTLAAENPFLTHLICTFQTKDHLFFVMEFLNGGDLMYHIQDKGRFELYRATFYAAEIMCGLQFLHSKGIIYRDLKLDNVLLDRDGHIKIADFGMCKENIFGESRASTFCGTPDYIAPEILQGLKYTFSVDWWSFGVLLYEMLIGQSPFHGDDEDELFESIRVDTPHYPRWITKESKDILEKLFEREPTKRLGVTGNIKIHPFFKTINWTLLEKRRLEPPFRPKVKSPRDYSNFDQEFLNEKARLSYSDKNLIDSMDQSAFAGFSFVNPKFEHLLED

With `CCCCCCCCCCCC[C@H]1C(=O)N[C@H](CO)Cc2ccccc2N1C`, the Ki in test [1] stood at 0.8 nM. The same measure, in the same setting: then `CCCCCCCCCC[C@H]1C(=O)N[C@H](CO)Cc2ccccc2N1C`, with 0.8 nM; and `CCCCCCCCCCCCCC[C@H]1C(=O)N[C@H](CO)Cc2ccccc2N1C`, with 0.8 nM. On to `CCCCCCCCCCCCCCCCCCCC[C@H]1C(=O)N[C@H](CO)Cc2ccccc2N1C`, for which, in test [1], the Ki was greater than 1000 nM. For the same compound, in the test with HL-60, the EC50 worked out at 70 nM.

Usually Ki stands for the dissociation constant of the complex between target and ligand, obtained from inhibition or displacement.
